Data reported in patent US20090186838A1, “Amphotericin Derivatives” (Eidgenössische Technische Hochschule Zürich, priority 2006, published 2009).
In brackets after ≈: the same amount, converted by molar mass. Read-outs that look alike come from different tables or passages of the source.

Columns and labels:
[1] = K+ efflux assay, cholesterol containing vesicles; conditions: for K+ efflux with cholesterol-containing vesicles: high concentration, 1.0 μM (FIG. 3b,d,f,h), compared with AmB (1a); for K+ efflux with cholesterol containing vesicles: lower concentration, 0.1 μM (FIG. 3a,c,e,g)
Protocol: (§1) FIG. 3. K^+ efflux from vesicles (LUVET100) prepared from […] (POPC) (solid line) or POPC with sterols (dotted line) for ergosterol and (broken line) for cholesterol caused by AmB (1a) (FIGS. 3a,b) and AmB diamine 3 (FIG. 3c,d), AmB diamine ester 9 (FIG. 3e,f) and AmB diamine amide 10 (FIG. 3g,h), added in DMSO to a suspension of vesicles to give final concentrations of 0.1 μM (FIG. 3a,c,e,g) and 1.0 μM (FIG. 3b,d,f,h).
K+ efflux assay. The K^+ efflux measurements were made following a previously described procedure (Zumbuehl, A. et al., Angew. Chem. Int. Ed. 2004, 43, 5181-5185; Zumbuehl, A. et al., Org. Lett. 2004, 6, 3683-3686). The appropriate liposome suspensions were prepared using POPC, cholesterol and ergosterol. Then the liposomes were sized by extrusion through two 400 nm, 200 nm, and finally 100 nm pore size membrane. The resultant “100 nm” unilamellar liposomes were dialyzed against 600 mL of 150 mM NaCl, 5 mM HEPES (pH 7.4) buffer. After, the suspension was diluted with 150 mM NaCl, 5 mM HEPES (pH 7.4) buffer to 1 mM overall lipid concentration (phospholipids+sterols). For each efflux measurement 10 mL of this liposome suspension was placed in a small beaker. Potentiometric measurements were performed with a 16-channel electrode monitor in magnetically stirred solutions at ambient temperature. The reference electrode was a Metrohm double junction Ag/AgCl reference electrode with 3 M KCl as reference electrolyte and 1 M LiOAc as bridge electrolyte. After recording the amphotericin-induced potassium efflux, liposomes were lysed by adding sodium cholate (172 mg). The resulting reading (taken after 0.5 h) was used to quantify the 100% K+-release.
As described hereinbefore differential interaction between ergosterol found in fungal membranes and cholesterol in mammalian cells is considered the basis for the selectivity of AmB (1a) as an antifungal agent. The preferential stabilization of ion channel formation in the membrane by ergosterol ultimately results in electrolyte leakage which can be conveniently measured by K^+ efflux from sterol containing vesicles. To assess the interaction of the polyene macrolide derivatives of the invention with sterols, derivatives 3, 9 and 10 were examined in their ability to lead to K^+ efflux from large unilamellar vesicles (LUV) prepared from POPC (1-palmitoyl-2-oleoyl-sn-glycero-3-phosphocholine) admixed with sterols, mimicking conditions in natural biomembranes (FIG. 3). At high concentration (FIG. 3b,d,f,h), all compounds rapidly induce complete K^+ efflux from vesicles containing ergosterol (dotted line). […] This differentiation between ergosterol and cholesterol is consistent with the observation of reduced hemotoxicity of 3, 9 and 10.

human erythrocytes = assay: Hemolytic assay (EH50); format: cell-based; conditions: concentration that led to 50% hemolysis of human erythrocytes; one hour at 37° C.
Protocol: Hemolytic Assay. The hemotoxicity of the polyene macrolide derivatives of the invention was determined by measuring the toxicity towards human erythrocytes (EH50 value) using an established assay (Kinsky, S. C. et al., Biochem. Biophys. Res. Comm. 1962, 9, 503). Human blood, anticoagulated with citrate or EDTA, was centrifuged (2000×g) at 4° C. for 10 minutes. The pellets were washed three times with PBS buffer (pH 7.2 with 2 g/L glucose) and then diluted to a concentration of 4% (4×10^8 cells/mL). All experiments were done in triplo and the total volume for the hemolysis tubes was 1.4 ml. The solutions were prepared by adding 1% (14 μL) of DMSO solution of the tested compound with […] of PBS buffer and completed with 750 μL of 4% erythrocytes. After one hour incubation at 37° C., the samples were centrifuged (1500×g) at 4° C. for 5 min and the absorbance of the supernatant was measured at 560 nm. The concentration that led to 50% hemolysis (EH50) was intrapolated graphically. The value for the 100% hemolysis was obtained by the treatment with 100 μM of AmB.
The toxicity of AmB (1a) and the polyene macrolides 3, 9 and 10 towards human erythrocytes was examined using the above described hemolysis assay (Table 3).

DSY-565 C. glabrata CI = assay: MIC determination in Candida strain DSY-565; format: cell-based; conditions: Nakaseomyces glabratus
Protocol: (§2) In Vitro Antifungal Activity. MIC values for various strains were determined in accordance with the standard protocol from the National Committee of Clinical Laboratory Standards but using YEPD liquid medium instead of RPMI-1640 medium (National Committee of Clinical Laboratory Standards (Reference Method for Broth Dilution Antifungal Susceptibility Testing of Yeast, M27-A2, Approved Standard-Second Edition, Volume 22, Number 15, 1995). AmB was used as a reference. The strains were cultivated overnight in 5 mL YEPD liquid medium at 30 to 37° C. (30° C. for the strain BY4741; 37° C. for the strain DSY1764) with constant shaking. The saturated cultures were diluted to an ODB600 of 0.1 (3×10P^7 cells/mL). Using 24 wells plate, each well was prepared by adding 1% (12 μL) of DMSO solution of the tested polyene macrolide with 1% (12 μL) yeast cells solution and completed with YEPD (1.176 mL). The plates were sealed with Parafilm and then incubated for 18 to 36 hours at 30 to 37° C. (18 hours at 30° C. for the strain BY4741; 36 hours at 37° C. for the strain DSY1764). The optical density was read at 600 nm using 1.5 mL cuvettes. The MIC value was defined as the drug concentration needed to inhibit growth, less than 5% compared to a drug-free culture.
(§3) MIC values of the polyene macrolides 3, 9 and 10 (Diamine-AmB and its ester and diamide derivative, respectively) in various Candida strains including an AmB-resistant strain C. albicans (DSY1764, with the genotype erg3AΔ::hisG/erg3BΔ::hisG erg11Δ::hisG/erg11Δ::hisG-URA3-hisG) were determined.

[2] = K+ efflux assay, ergosterol containing vesicles; conditions: lower concentration, 0.1 μM (FIG. 3a,c,e,g)
Protocol: as §1
K+ efflux assay. The K^+ efflux measurements were made following a previously described procedure (Zumbuehl, A. et al., Angew. Chem. Int. Ed. 2004, 43, 5181-5185; Zumbuehl, A. et al., Org. Lett. 2004, 6, 3683-3686). The appropriate liposome suspensions were prepared using POPC, cholesterol and ergosterol. Then the liposomes were sized by extrusion through two 400 nm, 200 nm, and finally 100 nm pore size membrane. The resultant “100 nm” unilamellar liposomes were dialyzed against 600 mL of 150 mM NaCl, 5 mM HEPES (pH 7.4) buffer. After, the suspension was diluted with 150 mM NaCl, 5 mM HEPES (pH 7.4) buffer to 1 mM overall lipid concentration (phospholipids+sterols). For each efflux measurement 10 mL of this liposome suspension was placed in a small beaker. Potentiometric measurements were performed with a 16-channel electrode monitor in magnetically stirred solutions at ambient temperature. The reference electrode was a Metrohm double junction Ag/AgCl reference electrode with 3 M KCl as reference electrolyte and 1 M LiOAc as bridge electrolyte. […] The resulting reading (taken after 0.5 h) was used to quantify the 100% K+-release.
As described hereinbefore differential interaction between ergosterol found in fungal membranes and cholesterol in mammalian cells is considered the basis for the selectivity of AmB (1a) as an antifungal agent. The preferential stabilization of ion channel formation in the membrane by ergosterol ultimately results in electrolyte leakage which can be conveniently measured by K^+ efflux from sterol containing vesicles. […]

DSY-296 C. albican CI = assay: MIC determination in Candida strain DSY-296; format: cell-based, Candida albicans; conditions: Candida albicans
Protocol: as §2, §3

[3] = test system: Saccharomyces cerevisiae wild type BY4741; assay: MIC determination in Saccharomyces cerevisiae wild type BY4741; format: cell-based; conditions: for MIC: read-out: MIC; for times more active than AmB (MIC): relative to AmB
Protocol: as §2
MIC values of various polyene macrolides of the invention in Saccharomyces cerevisiae wild type BY4741, a derivative of S288C, (with AmB as a reference) were determined as described hereinabove.
Based on the remarkable performance observed with the Diamine-AmB conjugate similar modifications of the aminosugar moiety were made on other polyene macrolides, such as for example Nystatin (1b) and Pimaricin (1c). The antifungal activity of these nystatin and pimaricin conjugates bearing two aminopropyl side chains was measured using Saccharomyces cerevisiae wild type BY4741.

[4] = Saccharomyces cerevisiae wild type BY4741, YEPD liquid medium, 18 hours at 30° C.
[5] = Saccharomyces cerevisiae wild type BY4741
[6] = Saccharomyces cerevisiae, Table 3, strain not given, values as in Table 1 (S. cerevisiae BY4741)

C[C@@H]1[C@H](O)[C@@H](C)/C=C/C=C/C=C/C=C/C=C/C=C/C=C/[C@H](O[C@@H]2O[C@H](C)[C@@H](O)[C@H](N(CCCN)CCCN)[C@@H]2O)CC2O[C@](O)(C[C@@H](O)C[C@@H](O)[C@H](O)CC[C@@H](O)C[C@@H](O)CC(=O)O[C@H]1C)C[C@H](O)[C@H]2C(=O)NCCN [compound 10, 16-(N′-(2-Aminoethyl)-carboxamide)-N,N-di-(3-aminopropyl)-AmB]
K+ efflux with cholesterol-containing vesicles [1]: significantly reduced efflux
K+ efflux with cholesterol containing vesicles [1]: indistinguishable from background
EH50 (human erythrocytes): 30 µM
MIC (DSY-565 C. glabrata CI): 0.5 µM (≈ 0.54 µg/mL)
K+ efflux with ergosterol containing vesicles [2]: observed exclusively with the ergosterol containing vesicles
MIC (DSY-296 C. albican CI): 0.75 µM (≈ 0.81 µg/mL)
MIC [3, 4]: 0.04 µM (≈ 0.0432 µg/mL)
times more active than AmB (MIC) [3, 5]: 7.5 times
MIC [3, 6]: 0.04 µM (≈ 0.0432 µg/mL)

COC(=O)[C@H]1[C@@H]2C[C@@H](O[C@@H]3O[C@H](C)[C@@H](O)[C@H](N(CCCN)CCCN)[C@@H]3O)/C=C/C=C/C=C/C=C/C=C/C=C/C=C/[C@H](C)[C@@H](O)[C@@H](C)[C@H](C)OC(=O)C[C@H](O)C[C@H](O)CC[C@@H](O)[C@H](O)C[C@H](O)C[C@](O)(C[C@@H]1O)O2 [compound 9, N,N-Di-(3-aminopropyl)-AmB Methyl Ester]
K+ efflux with cholesterol-containing vesicles [1]: significantly reduced efflux
K+ efflux with cholesterol containing vesicles [1]: indistinguishable from background
EH50 (human erythrocytes): 50 µM
MIC (DSY-565 C. glabrata CI): 0.25 µM (≈ 0.263 µg/mL)
K+ efflux with ergosterol containing vesicles [2]: observed exclusively with the ergosterol containing vesicles
MIC (DSY-296 C. albican CI): 0.1 µM (≈ 0.105 µg/mL)
MIC [3, 4]: 0.1 µM (≈ 0.105 µg/mL)
times more active than AmB (MIC) [3, 5]: 3 times
MIC [3, 6]: 0.1 µM (≈ 0.105 µg/mL)
